Key:
[1] = test system: 6-OHDA rodent model of PD; conditions: cited from earlier work
[2] = biological target: recombinant human mGlu4 expressed in HEK293 cells (Homo sapiens (Human), UniProt Q14833); assay: Ca2+ mobilization in vitro assay, mGlu4 PAM (with EC20 of L-AP4); type: cell-based; conditions: for Emax: HEK293, maximal response in % of the maximal stimulatory effect obtained with saturating concentrations of L-AP4, read-out: Eff. (%); for EC50: human mGlu4 in HEK293 cells, Ca2+ mobilization, L-AP4 at EC20, read-out: EC50 (nM) mGlu4PAM
Chain of recombinant human mGlu4 expressed in HEK293 cells (Q14833 33-912): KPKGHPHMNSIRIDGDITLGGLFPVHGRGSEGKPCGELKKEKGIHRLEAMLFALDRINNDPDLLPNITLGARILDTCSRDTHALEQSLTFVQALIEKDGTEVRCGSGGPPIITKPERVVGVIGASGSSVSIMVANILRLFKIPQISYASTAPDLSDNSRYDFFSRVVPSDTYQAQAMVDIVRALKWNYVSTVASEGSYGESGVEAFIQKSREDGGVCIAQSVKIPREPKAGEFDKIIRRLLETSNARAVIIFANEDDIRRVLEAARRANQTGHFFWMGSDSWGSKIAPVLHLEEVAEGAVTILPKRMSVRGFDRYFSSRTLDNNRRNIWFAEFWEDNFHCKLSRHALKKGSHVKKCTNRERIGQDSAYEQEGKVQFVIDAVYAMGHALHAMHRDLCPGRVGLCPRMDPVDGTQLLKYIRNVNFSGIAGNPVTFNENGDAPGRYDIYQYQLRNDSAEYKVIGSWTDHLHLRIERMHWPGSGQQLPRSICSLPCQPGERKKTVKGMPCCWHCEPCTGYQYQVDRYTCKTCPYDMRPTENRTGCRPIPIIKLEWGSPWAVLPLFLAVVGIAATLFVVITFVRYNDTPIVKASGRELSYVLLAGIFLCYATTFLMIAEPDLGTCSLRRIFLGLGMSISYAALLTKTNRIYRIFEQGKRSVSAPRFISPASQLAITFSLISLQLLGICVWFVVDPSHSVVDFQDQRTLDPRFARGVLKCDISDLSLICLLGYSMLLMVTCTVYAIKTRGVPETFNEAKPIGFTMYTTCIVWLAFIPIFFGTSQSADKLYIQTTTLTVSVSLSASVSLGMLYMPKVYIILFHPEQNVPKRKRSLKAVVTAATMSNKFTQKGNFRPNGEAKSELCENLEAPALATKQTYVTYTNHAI
Experimental: Determination of EC50 Values Using a Ca2+ Mobilization in vitro Assay on Recombinant Human mGlu4 Expressed in HEK293 Cells:
A monoclonal HEK-293 cell line stably transfected with a cDNA encoding for the human mGlu4 receptor was generated; for the work with mGlu4 Positive Allosteric Modulators (PAMs), a cell line with low receptor expression levels and low constitutive receptor activity was selected to allow the differentiation of agonistic versus PAM activity. Cells were cultured according to standard protocols (Freshney, 2000) in Dulbecco's Modified Eagle Medium with high glucose supplemented with 1 mM glutamine, 10% (vol/vol) heat-inactivated bovine calf serum, Penicillin/Streptomycin, 50 μg/ml hygromycin and 15 μg/ml blasticidin (all cell culture reagents and antibiotics from Invitrogen, Basel, Switzerland). • About 24 hrs before an experiment, 5×10^4 cells/well were seeded in poly-D-lysine coated, black/clear-bottomed 96-well plates. The cells were loaded with 2.5 μM Fluo-4AM in loading buffer (1×HBSS, 20 mM HEPES) for 1 hr at 37° C. and washed five times with loading buffer. The cells were transferred into a Functional Drug Screening System 7000 (Hamamatsu, Paris, France), and 11 half logarithmic serial dilutions of test compound at 37° C. were added and the cells were incubated for 10-30 min. with on-line recording of fluorescence. Following this pre-incubation step, the agonist (2S)-2-amino-4-phosphonobutanoic acid (L-AP4) was added to the cells at a concentration corresponding to EC20 with on-line recording of fluorescence; in order to account for day-to-day variations in the responsiveness of cells, the EC20 of L-AP4 was determined immediately ahead of each experiment by recording of a full dose-response curve of L-AP4.
Responses were measured as peak increase in fluorescence minus basal (i.e. fluorescence without addition of L-AP4), normalized to the maximal stimulatory effect obtained with saturating concentrations of L-AP4. Graphs were plotted with the % maximal stimulatory using XLfit, a curve fitting program that iteratively plots the data using Levenburg Marquardt algorithm. The single site competition analysis equation used was y=A+((B−A)/(1+((x/C)D))), where y is the % maximal stimulatory effect, A is the minimum y, B is the maximum y, C is the EC50, x is the log 10 of the concentration of the competing compound and D is the slope of the curve (the Hill Coefficient). From these curves the EC50 (drug concentration at which 50% of the maximal receptor activation was achieved), the Hill coefficient as well as the maximal response in % of the maximal stimulatory effect obtained with saturating concentrations of L-AP4 were calculated (see FIG. 1).
A depression of the signal observed after addition of the EC20 concentration of L-AP4 was indicative of an inhibitory activity of the test compound.

EPM in mice = conditions: reported by Addex 2010; cited from earlier work
[3] = test system: marble burying test in mice; conditions: reported by Addex 2010; cited from earlier work
EPM in rats = conditions: cited from earlier work
mice treated with MPTP = conditions: cited from earlier work

Emax [2] [%]	EC50 [2] [nM]	Structure (SMILES)	also measured
–	–	N[C@@H](CCP(=O)(O)O)C(=O)O [L-AP4, (2S)-2-amino-4-phosphonobutanoic acid]	neuroprotective effects [1]: demonstrated neuroprotective effects
188	204	CC1COCC2C(=O)N(c3c(F)cc(C#Cc4ccccc4)cc3F)C(=O)N12 (racemic) [Example 4, (5RS,8aRS)-2-[2,6-Difluoro-4-(2-phenylethynyl)phenyl]-5-methyl-5,6,8,8a-tetrahydroimidazo[5,1-c][1,4]oxazine-1,3-dione]	–
110	74	O=C1C2CCc3ccccc3N2C(=O)N1c1c(F)cc(C#Cc2ccccc2)cc1F (racemic) [Example 6, (3aRS)-2-[2,6-Difluoro-4-(2-phenylethynyl)phenyl]-4,5-dihydro-3aH-imidazo[1,5-a]quinoline-1,3-dione]	–
232	256	CC1CCCC2C(=O)N(c3ccc(C#Cc4ccccc4)cc3Cl)C(=O)N12 (racemic) [Example 10, (5RS,8aRS)-2-[2-Chloro-4-(2-phenylethynyl)phenyl]-5-methyl-6,7,8,8a-tetrahydro-5H-imidazo[1,5-a]pyridine-1,3-dione]	–
99	56	O=C1C2Cc3ccccc3CN2C(=O)N1c1c(F)cc(C#Cc2ccccc2)cc1F (racemic) [Example 9, (10aRS)-2-[2,6-Difluoro-4-(2-phenylethynyl)phenyl]-10,10a-dihydro-5H-imidazo[1,5-b]isoquinoline-1,3-dione]	–
–	–	Cc1ccnc(Nc2nc(-c3cn[nH]c3)c(C)s2)n1 [ADX88178]	activity in EPM (EPM in mice): active; activity in marble burying test [3]: active; profile in rat EPM test (EPM in rats; rat, after oral dosing): anxiolytic-like profile; activity in EPM (EPM in rats; rats, reported by Addex 2010): active
154	441	CC(C)N1CC(=O)N(c2c(F)cc(C#Cc3ccccc3)cc2F)C1=O [Example 1, 3-[2,6-Difluoro-4-(2-phenylethynyl)phenyl]-1-isopropyl-imidazolidine-2,4-dione]	–
103	188	O=C1C2Cc3ccccc3N2C(=O)N1c1c(F)cc(C#Cc2ccccc2)cc1F (racemic) [Example 5, (3aRS)-2-[2,6-Difluoro-4-(2-phenylethynyl)phenyl]-3a,4-dihydroimidazo[1,5-a]indole-1,3-dione]	–
113	370	O=C1CN(C2CC2)C(=O)N1c1c(F)cc(C#Cc2ccccc2)cc1F [Example 12, 1-Cyclopropyl-3-[2,6-difluoro-4-(2-phenylethynyl)phenyl]imidazolidine-2,4-dione]	–
222	242	CC1(C)C(=O)N(c2c(F)cc(C#Cc3ccccc3)cc2F)C(=O)N1c1ccccc1 [Example 7, 3-[2,6-Difluoro-4-(2-phenylethynyl)phenyl]-5,5-dimethyl-1-phenyl-imidazolidine-2,4-dione]	–
–	–	O=C(Nc1ccccc1)C12CC1/C(=N\O)c1ccccc1O2 (single isomer, unassigned; (-)) [(−)-PHCCC]	nigrostriatal degeneration (mice treated with MPTP): reduced nigrostriatal degeneration
100	230	CC(C)N1C(=O)N(c2c(F)cc(C#Cc3ccccc3)cc2F)C(=O)C12COC2 [Example 13, 7-[2,6-Difluoro-4-(2-phenylethynyl)phenyl]-5-isopropyl-2-oxa-5,7-diazaspiro[3.4]octane-6,8-dione]	–
98	286	CC(C)N1C(=O)N(c2c(F)cc(C#Cc3ccccc3)cc2F)C(=O)C1(C)C [Example 3, 3-[2,6-Difluoro-4-(2-phenylethynyl)phenyl]-1-isopropyl-5,5-dimethyl-imidazolidine-2,4-dione]	–
143	222	CC(C)(C)N1CC(=O)N(c2c(F)cc(C#Cc3ccccc3)cc2F)C1=O [Example 8, 1-tert-Butyl-3-[2,6-difluoro-4-(2-phenylethynyl)phenyl]imidazolidine-2,4-dione]	–
107	104	CC(C)N1C(=O)N(c2c(F)cc(C#Cc3ccccc3)cc2F)C(=O)C1C (racemic) [Example 2, (5RS)-3-[2,6-Difluoro-4-(2-phenylethynyl)phenyl]-1-isopropyl-5-methyl-imidazolidine-2,4-dione]	–
140	180	CC1CCCC2C(=O)N(c3c(F)cc(C#Cc4cccnc4)cc3Cl)C(=O)N12 (racemic) [Example 11, (5RS,8aRS)-2-[2-Chloro-6-fluoro-4-[2-(3-pyridyl)ethynyl]phenyl]-5-methyl-6,7,8,8a-tetrahydro-5H-imidazo[1,5-a]pyridine-1,3-dione]	–
